Article PMC6220203, “Cellular signaling and gene expression profiles evoked by a bivalent macrocyclic peptide that serves as an artificial MET receptor agonist” (Scientific Reports, 2018)

Test system: MET receptor / AKT in EHMES-1 cells
Assay: Western blot of MET and AKT phosphorylation with or without PHA665752
Assay type: cell-based, human
Conditions: PHA665752 100 nM, stimulated by 1 nM HGF or 120 nM aMD5-PEG11, 10 min
Method: EHMES-1 cells were seeded at 9 × 10^5 cells per well in 6-well plates and cultured overnight. To treat the cells with the MET receptor tyrosine kinase inhibitor, EHMES-1 cells were seeded at 3 × 10^5 cells per well in 24-well plates and cultured with or without 100 nM PHA665752 for 12 h. After serum starvation for 4 h, cells were stimulated with HGF or dimeric macrocycle peptide. After washing with ice-cold PBS, cells were lysed in 200 μl 1 × SDS-PAGE Laemmli sample buffer and treated with ultrasonification (Vibra-cell). Cell lysates were analyzed by SDS-PAGE with a 7.5% polyacrylamide gel and electroblotted onto a PVDF membrane. The membrane was treated with primary antibodies (1:1000), followed by HRP-conjugated secondary antibodies (Dako) (1:2000). Chemiluminescence was visualized and quantitated using ImmunoStar LD (Wako). Original blots are provided by supplementary info.

In the case of `Cc1[nH]c(/C=C2\C(=O)Nc3ccc(S(=O)(=O)Cc4c(Cl)cccc4Cl)cc32)c(C)c1C(=O)N1CCC[C@@H]1CN1CCCC1` [PHA665752], the “inhibition of MET receptor and AKT activation” value is reported as “almost completely blocked the activation of the MET receptor and AKT to basal levels”.
